In this test the test system is YAP/TAZ-TEAD transcription. Put plainly: Reporter gene assay for measuring the inhibition of YAP/TAZ-TEAD transcription (TEAD-responsive element luciferase reporter in Hek293T cells). The class given is cell-based. As to conditions: 24 hours incubation. On the procedure:
Example 56: Activity of Compounds of the Disclosure in a Reporter Gene Assay for Measuring the Inhibition of YAP/TAZ-TEAD Transcription
Hek293T cells were cultured in DMEM supplemented with 10% fetal bovine serum, Sodium pyruvate, Sodium bicarbonate, L-glutamine. The cells were harvested and transiently transfected with TEAD-responsive element luciferase reporter. Transfected cells were plated in 384-well plate containing pre-diluted compounds. After 24 hours incubation at 37° C./5% CO2, assay plates were cooled to room temperature and levelled to an equal volume per well, prior to the addition of 25 uL luciferase substrate SteadyLite (Perkin Elmer)/well. The plate was shaken for 10 min at 600 rpm, centrifuged for 1 min at 500 rpm and measured with an Envision reader (PerkinElmer). The amount of relative light units produced by the TEAD reporter was used to calculate the percentage of inhibition.
The percent of reporter inhibition was calculated in the presence of a positive control inhibitor (100% inhibition) versus a condition with the presence of the vehicle basal activity of the reporter (0% inhibition). The ability of a test compound to inhibit this activity was determined as: Percentage inhibition=[[…]((RLU determined in the presence of vehicle−RLU determined for sample with test compound present) divided by (RLU determined in the presence of vehicle−RLU determined for sample with positive control inhibitor))]*100.
The activities of example compounds tested are depicted in Table 3. The activity ranges A, B and C refer to IC50 values in the reporter gene assay as follows: “A”: IC50<1 μM; “B”: 1 μM≤IC50≤10 μM and “C”: IC50>10 μM; NT=not tested.

The record followed here is patent US20240409556A1, “BENZOPIPERAZINE AND RELATED ANALOGS FOR INHIBITING YAP/TAZ-TEAD” (Springworks Therapeutics, Inc., priority 2023, published 2024).

Structures are written as SMILES. Bounds are passed on as bounds.

Regarding `CC(=O)NCC1CN(c2ccc(C(F)(F)F)cc2)c2ccc(C#N)nc2O1` (single isomer, unassigned) [99-En1 or 99-En2, (R)- or (S)—N-((6-cyano-1-(4-(trifluoromethyl)phenyl)-2,3-dihydro-1H-pyrido[2,3-b][1,4]oxazin-3-yl)methyl)acetamide], the IC50 (Homo sapiens, HEK-293T, 24 h) is 1000 to 10000 nM.

With `FC(F)(F)c1ccc(N2CC3CC(c4nnn[nH]4)CCN3c3ccccc32)cc1` (single isomer, unassigned) [121-D2, 8-(1H-tetrazol-5-yl)-5-(4-(trifluoromethyl)phenyl)-6,6a,7,8,9,10-hexahydro-5H-pyrido[1,2-a]quinoxaline], the IC50 is under 1000 nM.

For `FC(F)(F)c1ccc(N2CC3CC(c4nnn[nH]4)CCN3c3ccccc32)cc1` (single isomer, unassigned) [121-D3, 8-(1H-tetrazol-5-yl)-5-(4-(trifluoromethyl)phenyl)-6,6a,7,8,9,10-hexahydro-5H-pyrido[1,2-a]quinoxaline], the IC50 was in the range of 1000 to 10000 nM.

As to `FC(F)(F)c1ccc(N2CC3CC(c4nnn[nH]4)CCN3c3ccccc32)cc1` (single isomer, unassigned) [121-D4, 8-(1H-tetrazol-5-yl)-5-(4-(trifluoromethyl)phenyl)-6,6a,7,8,9,10-hexahydro-5H-pyrido[1,2-a]quinoxaline], the IC50 was under 1000 nM.

On to `CC(=O)NCC1CN(c2ccc(C(F)(F)F)cc2)c2ccc(Br)nc2O1` (single isomer, unassigned) [compound 122, (R)- or (S)—N-((6-bromo-1-(4-(trifluoromethyl)phenyl)-2,3-dihydro-1H-pyrido[2,3-b][1,4]oxazin-3-yl)methyl)acetamide], for which the IC50 (Homo sapiens, HEK-293T, 24 h) is under 1000 nM.

The compound `C=CC(=O)N1CCN2c3ncccc3N(c3ccc(C(F)(F)F)cc3)CC2C1` (stereo not drawn) [28-En1, 1-(5-(4-(trifluoromethyl)phenyl)-5,6,6a,7,9,10-hexahydro-8H-pyrazino[1,2-a]pyrido[3,2-e]pyrazin-8-yl)prop-2-en-1-one] yielded an IC50 (Homo sapiens, HEK-293T, 24 h) of under 1000 nM.

`C=CC(=O)N1CCN2c3ncccc3N(c3ccc(C(F)(F)F)cc3)CC2C1` (stereo not drawn) [28-En2, 1-(5-(4-(trifluoromethyl)phenyl)-5,6,6a,7,9,10-hexahydro-8H-pyrazino[1,2-a]pyrido[3,2-e]pyrazin-8-yl)prop-2-en-1-one] showed an IC50 of under 1000 nM.

`CC(=O)NC[C@H]1CN(c2ccc(C(F)(F)F)cc2)c2cccnc2N1` [39-En1, (S)-N-((1-(4-(trifluoromethyl)phenyl)-1,2,3,4-tetrahydropyrido[2,3-b]pyrazin-3-yl)methyl)acetamide] returned an IC50 (Homo sapiens, HEK-293T, 24 h) of under 1000 nM.

Take `CC(=O)NC[C@@H]1CN(c2ccc(C(F)(F)F)cc2)c2cccnc2N1` [39-En2, (R)-N-((1-(4-(trifluoromethyl)phenyl)-1,2,3,4-tetrahydropyrido[2,3-b]pyrazin-3-yl)methyl)acetamide]: the IC50 (Homo sapiens, HEK-293T, 24 h) is under 1000 nM.

For the compound `CC(=O)N1CCN2c3ncccc3N(c3ccc(C(F)(F)F)cn3)CC2C1` (stereo not drawn) [53-En2, 1-(5-(5-(trifluoromethyl)pyridin-2-yl)-5,6,6a,7,9,10-hexahydro-8H-pyrazino[1,2-a]pyrido[3,2-e]pyrazin-8-yl)ethan-1-one], the IC50 is over 10000 nM.

`CNC(=O)O[C@H]1C[C@@H]2CN(c3ccc(C(F)(F)F)cc3)c3cccnc3N2C1` [55-En1, (6aR,8S)-5-(4-(trifluoromethyl)phenyl)-5,6,6a,7,8,9-hexahydropyrido[3,2-e]pyrrolo[1,2-a]pyrazin-8-yl methylcarbamate] had an IC50 (Homo sapiens, HEK-293T, 24 h) of under 1000 nM.

As to `O=C(O)C1CCN2c3ccccc3N(c3ccc(C(F)(F)F)cc3)CC2C1` (stereo not drawn) [65A, (cis)- or (trans)-5-(4-(trifluoromethyl)phenyl)-6,6a,7,8,9,10-hexahydro-5H-pyrido[1,2-a]quinoxaline-8-carboxylic acid], for the setting “Homo sapiens, HEK-293T, 24 h”, the concentration for half-maximal inhibition (IC50) was under 1000 nM.

`CC(=O)N[C@@H]1C[C@@H]2CN(c3ccc(C(F)(F)F)cc3)c3cccnc3N2C1` [70-D1, N-((6aR,8R)-5-(4-(trifluoromethyl)phenyl)-5,6,6a,7,8,9-hexahydropyrido[3,2-e]pyrrolo[1,2-a]pyrazin-8-yl)acetamide] came in with an IC50 (Homo sapiens, HEK-293T, 24 h) of under 1000 nM.

Take `CC(=O)N[C@H]1C[C@@H]2CN(c3ccc(C(F)(F)F)cc3)c3cccnc3N2C1` [70-D2, N-((6aR,8S)-5-(4-(trifluoromethyl)phenyl)-5,6,6a,7,8,9-hexahydropyrido[3,2-e]pyrrolo[1,2-a]pyrazin-8-yl)acetamide]: the half-maximal inhibitory concentration (IC50) (Homo sapiens, HEK-293T, 24 h) is under 1000 nM.

For `O=C(O)C1CCN2c3ncccc3N(c3ccc(C(F)(F)F)cc3)CC2C1` [96A-En1, (6aS,8S)- or (6aR,8S)- or (6aR,8R)- or (6aS,8R)-5-(4-(trifluoromethyl)phenyl)-6,6a,7,8,9,10-hexahydro-5H-dipyrido[1,2-a:3′,2′-e]pyrazine-8-carboxylic acid], under “Homo sapiens, HEK-293T, 24 h”, the IC50 is under 1000 nM.

`O=C(O)C1CCN2c3ncccc3N(c3ccc(C(F)(F)F)cc3)CC2C1` [96A-En2, (6aS,8S)- or (6aR,8S)- or (6aR,8R)- or (6aS,8R)-5-(4-(trifluoromethyl)phenyl)-6,6a,7,8,9,10-hexahydro-5H-dipyrido[1,2-a:3′,2′-e]pyrazine-8-carboxylic acid] had an IC50 of under 1000 nM.

The compound `O=C(O)C1CCN2c3ncc(Cl)cc3N(c3ccc(C(F)(F)F)cc3)CC2C1` (stereo not drawn) [100A, (cis)- or (trans)-3-chloro-5-(4-(trifluoromethyl)phenyl)-6,6a,7,8,9,10-hexahydro-5H-dipyrido[1,2-a:3′,2′-e]pyrazine-8-carboxylic acid] yielded an IC50 (Homo sapiens, HEK-293T, 24 h) of under 1000 nM.

Under “Homo sapiens, HEK-293T, 24 h”, `Cc1ccc2c(n1)N1CCC(C(=O)O)CC1CN2c1ccc(C(F)(F)F)cc1` [101-D1, (6aS,8S)— or (6aR,8S)— or (6aR,8R)— or (6aS,8R)-2-methyl-5-(4-(trifluoromethyl)phenyl)-6,6a,7,8,9,10-hexahydro-5H-dipyrido[1,2-a:3′,2′-e]pyrazine-8-carboxylic acid] registered an IC50 of under 1000 nM.

For `Cc1ccc2c(n1)N1CCC(C(=O)O)CC1CN2c1ccc(C(F)(F)F)cc1` [101-D3, (6aS,8S)— or (6aR,8S)— or (6aR,8R)— or (6aS,8R)-2-methyl-5-(4-(trifluoromethyl)phenyl)-6,6a,7,8,9,10-hexahydro-5H-dipyrido[1,2-a:3′,2′-e]pyrazine-8-carboxylic acid], the IC50 is under 1000 nM.

Compound `C[C@@H](O)C(=O)N[C@@H]1C[C@@H]2CN(c3ccc(C(F)(F)F)cc3)c3cccnc3N2C1` [109-En1, (R)-2-hydroxy-N-((6aR,8R)-5-(4-(trifluoromethyl)phenyl)-5,6,6a,7,8,9-hexahydropyrido[3,2-e]pyrrolo[1,2-a]pyrazin-8-yl)propanamide] showed an IC50 (Homo sapiens, HEK-293T, 24 h) of under 1000 nM.

Turning to `CC1(C(=O)O)CCN2c3ccccc3N(c3ccc(C(F)(F)F)cc3)CC2C1` [115-D1, (6aS,8S)— or (6aR,8S)— or (6aR,8R)— or (6aS,8R)-8-methyl-5-(4-(trifluoromethyl)phenyl)-6,6a,7,8,9,10-hexahydro-5H-pyrido[1,2-a]quinoxaline-8-carboxylic acid], the IC50 is 1000 to 10000 nM.

In turn, `CC1(C(=O)O)CCN2c3ccccc3N(c3ccc(C(F)(F)F)cc3)CC2C1` [115-D2, (6aS,8S)— or (6aR,8S)— or (6aR,8R)— or (6aS,8R)-8-methyl-5-(4-(trifluoromethyl)phenyl)-6,6a,7,8,9,10-hexahydro-5H-pyrido[1,2-a]quinoxaline-8-carboxylic acid] had a concentration for half-maximal inhibition (IC50) of under 1000 nM.

Turning to `O=C(NO)C1CCN2c3ccccc3N(c3ccc(C(F)(F)F)cc3)CC2C1` [116B-En1, (6aS,8S)- or (6aR,8S)- or (6aR,8R)- or (6aS,8R)-N-hydroxy-5-(4-(trifluoromethyl)phenyl)-6,6a,7,8,9,10-hexahydro-5H-pyrido[1,2-a]quinoxaline-8-carboxamide], where the note is “Homo sapiens, HEK-293T, 24 h”, the IC50 was under 1000 nM.

As for `NC(=O)C1CCN2c3ccccc3N(c3ccc(C(F)(F)F)cc3)CC2C1` (stereo not drawn) [117B-En1, (cis)- or (trans)-5-(4-(trifluoromethyl)phenyl)-6,6a,7,8,9,10-hexahydro-5H-pyrido[1,2-a]quinoxaline-8-carboxamide], where the note is “Homo sapiens, HEK-293T, 24 h”, the IC50 was under 1000 nM.

For the setting “Homo sapiens, HEK-293T, 24 h”, `FC(F)(F)c1ccc(N2CC3CC(c4nnn[nH]4)CCN3c3ccccc32)cc1` (stereo not drawn) [121-D1, 8-(1H-tetrazol-5-yl)-5-(4-(trifluoromethyl)phenyl)-6,6a,7,8,9,10-hexahydro-5H-pyrido[1,2-a]quinoxaline] registered an IC50 of 1000 to 10000 nM.

`O=C(O)C1(F)CCN2c3ccccc3N(c3ccc(C(F)(F)F)cc3)CC2C1` [123-D2, (6aS,8S)- or (6aR,8S)- or (6aR,8R)- or (6aS,8R)-8-fluoro-5-(4-(trifluoromethyl)phenyl)-6,6a,7,8,9,10-hexahydro-5H-pyrido[1,2-a]quinoxaline-8-carboxylic acid]: the IC50 was under 1000 nM.

`O=C(O)C1(F)CCN2c3ccccc3N(c3ccc(C(F)(F)F)cc3)CC2C1` [123-D3, (6aS,8S)- or (6aR,8S)- or (6aR,8R)- or (6aS,8R)-8-fluoro-5-(4-(trifluoromethyl)phenyl)-6,6a,7,8,9,10-hexahydro-5H-pyrido[1,2-a]quinoxaline-8-carboxylic acid] returned an IC50 of under 1000 nM.
